According to US9451775B2, “Heterocyclic compounds as pesticides” (Bayer Intellectual Property GmbH, priority 2008, dated 2016):
Where two headings read alike, the source gives them in different places.

Assays:
[1] = logP determination by HPLC (formic acid method); format: physicochemical; conditions: reversed-phase HPLC column (C18), read-out: logP (HCOOH)
Method: 1) Description of the method for determining the logP values (formic acid method)
The logP values given in the table were determined in accordance with EEC Directive 79/831 Annex V.A8 by HPLC (High Performance Liquid Chromatography) on a reversed-phase column (C18). Temperature: 55° C.
Mobile phases for the determination in the acidic range (pH 3.4):
Mobile phase A: Acetonitrile+1 ml of formic acid/litre. Mobile phase B: water+0.9 ml of formic acid/litre.
Gradient: from 10% mobile phase A/90% mobile phase B to 95% mobile phase A/5% mobile phase B in 4.25 min.
Calibration was carried out using unbranched alkan-2-ones (having 3 to 16 carbon atoms) with known logP values (determination of the logP values by the retention times using linear interpolation between two successive alkanones). The lambda max values were determined in the maxima of the chromatographic signals using the UV spectra from 200 nm to 400 nm.

[2] = tested on: green peach aphid (Myzus persicae); experiment: Myzus test (spray treatment); format: in vivo; conditions: foliar, read-out: activity (effect in %, aphids killed)
Method: Myzus Test (Spray Treatment)
• Solvents: 78.0 parts by weight of acetone • 1.5 parts by weight of dimethylformamide • Emulsifier: 0.5 part by weight of alkylaryl polyglycol ether
To produce a suitable preparation of active compound, 1 part by weight of active compound is mixed with the stated amounts of solvents and emulsifier, and the concentrate is diluted with emulsifier-containing water to the desired concentration.
Discs of leaves of Chinese cabbage (Brassica pekinensis) which are heavily infested by all stages of the green peach aphid (Myzus persicae) are sprayed with an active compound preparation of the desired concentration.
After the desired period of time, the effect in % is determined. 100% means that all aphids have been killed; 0% means that none of the aphids have been killed.

[3] = pH 3.4, HPLC on reversed-phase column (C18), acidic range (pH 3.4), 55° C.
[4] = application rate of 500 g/ha, sprayed Chinese cabbage leaf discs
[5] = pH 3.4, values printed in the text of the preparation examples, formic acid method

Compound	chromatographic logP [1, 3]	chromatographic logP [1, 5]	pest or weed control at 500 g/ha [2, 4]	pest or weed control at 100 g/ha ([2]; application rate of 100 g/ha, sprayed Chinese cabbage leaf discs)	pest or weed control at 500 g/ha ([2]; in Brassica rapa)
Cc1nc(-c2cccnc2)sc1-c1ccnc(-c2ncccn2)n1 [Preparation Example 1, 4-(4-Methyl-2-pyridin-3-ylthiazol-5-yl)-[2,2′]bipyrimidinyl]	1.17	1.17	–	–	≥ 80%
Cc1nc(-c2cccnc2)sc1-c1cccc(-c2nccnn2)n1 [Preparation Example 4, 3-[6-(4-Methyl-2-pyridin-3-ylthiazol-5-yl)pyridin-2-yl]-[1,2,4]triazine]	1.58	1.58	–	–	≥ 80%
c1cnc(-c2cccc(-c3cnc(-c4cccnc4)s3)n2)nc1 [Preparation Example 5, 2-[6-(2-Pyridin-3-ylthiazol-5-yl)pyridin-2-yl]pyrimidine]	1.53	1.53	≥ 80%	–	–
Cc1nc(-c2cccnc2)sc1-c1cccc(-c2ncccn2)n1 [Preparation Example 6, 2-[6-(4-Methyl-2-pyridin-3-ylthiazol-5-yl)pyridin-2-yl]pyrimidine]	1.73	1.75	–	–	≥ 80%
Cc1nc(-c2cccnc2)sc1-c1cccc(C2=NOCCO2)n1 [Preparation Example 8, 3-[6-(4-Methyl-2-pyridin-3-ylthiazol-5-yl)pyridin-2-yl]-5,6-dihydro-[1,4,2]dioxazine]	1.82	1.81	–	–	≥ 80%
c1cnc(-c2nccc(-c3nnc(-c4cccnc4)s3)n2)nc1 [Preparation Example 9, 4-(5-Pyridin-3-yl-[1,3,4]thiadiazol-2-yl)-[2,2′]bipyrimidinyl]	1.07	1.07	–	–	≥ 80%
c1cnc(-c2cccc(-c3nnc(-c4cccnc4)s3)n2)nc1 [Preparation Example 10, 2-[6-(5-Pyridin-3-yl-[1,3,4]thiadiazol-2-yl)pyridin-2-yl]pyrimidine]	1.54	1.54	≥ 80%	–	–
Cn1nc(-c2cccnc2)cc1-c1ccn(-c2ncccn2)n1 [Preparation Example 11]	1	1	≥ 80%	–	–
Cn1nc(-c2cccnc2)cc1-c1ccnc(-c2ncccn2)n1 [Preparation Example 12]	0.65	0.65	–	–	≥ 80%
COC(OC)c1ccn(-c2sc(-c3cccnc3)nc2C)n1 [compound 19]	1.77	–	≥ 80%	–	–
Cn1nc(-c2cccnc2)cc1-c1cccnc1Cl [compound 226]	0.98	–	–	–	–
Cn1nc(-c2cccnc2)cc1-c1cncc(C#N)c1 [compound 227]	0.89	–	–	–	–
Cn1nc(-c2cccnc2)cc1-c1cncc(F)c1 [compound 228]	0.89	–	–	–	–
Cc1nc(-c2cccnc2)sc1-c1nc(C(=O)NC(C)C2CC2)cs1 (stereo not shown) [compound 233]	2.69	–	–	–	–
Cc1nc(-c2cccnc2)sc1-c1nc(C(=O)N2CCCCC2)cs1 [compound 236]	2.38	–	–	–	–
CCOc1ccc(-c2cc(-c3cccnc3)nn2C)cn1 [compound 245]	1.46	–	–	–	–
COc1ccc(-c2cc(-c3cccnc3)nn2C)cn1 [compound 246]	1.14	–	–	–	–
Cc1nc(-c2cccnc2)sc1-c1nc(C(=O)N2CCOCC2)cs1 [compound 247]	1.66	–	–	–	–
CCN(C)C(=O)c1cccc(-c2nnc(-c3cccnc3)s2)n1 [compound 248]	1.54	–	–	–	–
CON(C)C(=O)c1cccc(-c2nnc(-c3cccnc3)s2)n1 [compound 249]	1.29	–	–	–	–
O=C(c1cccc(-c2nnc(-c3cccnc3)s2)n1)N1CCOCC1 [compound 250]	1.29	–	–	–	–
Cn1nc(-c2cccnc2)cc1-c1cc[nH]n1 [drawing 82]	–	0.42	–	–	–

More lines, main results first:

chromatographic logP [1, 3]	chromatographic logP [1, 5]	Compound	pest or weed control at 500 g/ha [2, 4]	pest or weed control at 100 g/ha ([2]; application rate of 100 g/ha, sprayed Chinese cabbage leaf discs)	pest or weed control at 500 g/ha ([2]; in Brassica rapa)
2.63	–	Cc1nc(-c2cccnc2)sc1-n1ccc(C(F)(F)F)n1 [Ex. No. 14]	≥ 80%	–	–
3.31	–	Cc1nc(-c2cccnc2)sc1-n1ccc(C(F)(F)C(F)(F)F)n1 [Ex. No. 140]	–	≥ 80%	–
2.3	2.3	Cc1nc(-c2cccnc2)sc1-c1ccn(-c2cnccn2)n1 [Preparation Example 2, 2-[3-(4-Methyl-2-pyridin-3-ylthiazol-5-yl)pyrazol-1-yl]pyrazine]	≥ 80%	–	–
1.48	1.48	Cc1nc(-c2cccnc2)sc1-n1ccc(-c2ncccn2)n1 [Preparation Example 3, 2-[1-(4-Methyl-2-pyridin-3-ylthiazol-5-yl)-1H-pyrazol-3-yl]pyrimidine]	≥ 80%	–	–
1.56	1.56	Cc1nc(-c2cccnc2)sc1C1=NN(c2ncccn2)CCO1 [Preparation Example 7, 2-(4-Methyl-2-pyridin-3-ylthiazol-5-yl)-4-pyrimidin-2-yl-5,6-dihydro-4H-[1,3,4]oxadiazine]	≥ 80%	–	–
3.23	–	Clc1ccc(-c2cnc(-c3cccnc3)s2)cc1 [compound 13]	≥ 80%	–	–
1.67	–	Cc1nc(-c2cccnc2)sc1-n1ccc(-c2ccccn2)n1 [compound 15]	≥ 80%	–	–
1.72	–	Cc1nc(-c2cccnc2)sc1C1=NCC(c2ccccn2)O1 (stereo not shown) [compound 16]	≥ 80%	–	–
3.55	–	Cc1nc(-c2cccnc2)sc1-c1cccc(C(F)(F)F)c1 [compound 17]	≥ 80%	–	–
1.1	–	Cc1nc(-c2cccnc2)sc1-c1cccnc1 [compound 18]	≥ 80%	–	–
2.28	–	Cc1nc(-c2cccnc2)sc1-n1ccc(Br)n1 [compound 20]	≥ 80%	–	–
3.01	–	Cc1nc(-c2cccnc2)sc1-c1cccc(C(F)(F)F)n1 [compound 21]	≥ 80%	–	–
1.74	–	Cc1nc(-c2cccnc2)sc1-c1ccn(-c2ncccn2)n1 [compound 22]	≥ 80%	–	–
1.78	–	CON(C)C(=O)c1csc(-c2sc(-c3cccnc3)nc2C)n1 [compound 229]	–	–	–
2.93	–	Cc1nc(-c2cccnc2)sc1-c1nc(C(=O)NC(C)(C)C)cs1 [compound 234]	–	–	–
2.38	–	Cc1nc(-c2cccnc2)sc1-c1nc(C(=O)NCC(F)(F)C(F)F)cs1 [compound 235]	–	–	–
2.05	–	Cc1nc(-c2cccnc2)sc1-c1nc(C(=O)N2CCCC2)cs1 [compound 237]	–	–	–
2.53	–	Cc1nc(-c2cccnc2)sc1-c1nc(C(=O)N(C)CC(F)(F)F)cs1 [compound 238]	–	–	–
2.07	–	O=C(NCC(F)(F)F)c1cccc(-c2nnc(-c3cccnc3)s2)n1 [compound 241]	–	–	–
1.61	–	Cc1nc(-c2cccnc2)sc1-c1nc(C(=O)N2CCCO2)cs1 [compound 242]	–	–	–
1.67	–	Cc1nc(-c2cccnc2)sc1-c1nc(C(=O)N(C)C)cs1 [compound 243]	–	–	–
1.77	–	COC(=O)c1cccc(-c2cnc(-c3cccnc3)s2)n1 [compound 244]	–	–	–
